Measured values reported in EP0392423A2, “Substituted 1,4-7-10-tetraazacyclotridecanes, method for their preparation and use of the same for labelling substances with radionuclides” (priority 1989, dated 1990).
Read-outs that look alike come from different tables or passages of the source.

Test system: Transferrin
Conditions: human, serum
Method: Bei diesen Vergleichsversuchen wurde ¹¹¹In sowohl mit den bekannten 12- und 14-Ring-Cyclamen als auch mit dem erfindungsgemäßen Cyclam aus Beispiel 1 komplexiert und anschließend jeweils der ¹¹¹In-Austausch gegen Transferrin - ein bekanntermaßen gutes Komplexierungsmittel - in humanem Serum bei 37°C untersucht.

Row | Substance | ¹¹¹In-Austausch gegen Transferrin (12 h) | ¹¹¹In-Austausch gegen Transferrin (120 h)
1 | Dodecatetraacetate [DOTA] | ca. 0,3% | ca. 4%
2 | 12-(p-Nitrobenzyl)-1,4,7,10-tetraacetat-1,4,7,10-tetraazacyclotridecan [Beispiel 1] | < 0,1% | ca. 1%
